US12545639B2, “3-substituted phenylamidine compounds, preparation and use thereof” (PI INDUSTRIES LTD., priority 2019, dated 2026)

Columns and labels:
Pyricularia oryzae = experiment: microbe, parasite or virus in culture; format: cell-based; details: 168 h, read-out: control compared to the untreated check (radial growth)
Rhizoctonia solani = Rhizoctonia solani (rice sheath blight/potato black scurf) in vitro test, radial growth on potato dextrose agar; format: cell-based; details: 168 h, 300 ppm in potato dextrose agar, 25° C., 60% relative humidity, seven days, read-out: control compared to the untreated check (radial growth)
Botrytis cinerea = Botrytis cinerea (gray mold) in vitro test, radial growth on potato dextrose agar; format: cell-based; details: 168 h, 300 ppm in potato dextrose agar, 22° C., 90% relative humidity, seven days, read-out: control compared to the untreated check (radial growth)
Alternaria solani = Alternaria solani (early blight of tomato/potato) in vitro test, radial growth on potato dextrose agar; format: cell-based; details: 168 h, 300 ppm in potato dextrose agar, 25° C., 60% relative humidity, seven days, read-out: control compared to the untreated check (radial growth)
Colletotrichum capsici = Colletotrichum capsici (anthracnose) in vitro test, radial growth on potato dextrose agar; format: cell-based; details: Colletotrichum truncatum, 168 h; 300 ppm in potato dextrose agar; 25° C., 60% relative humidity, seven days; read-out: control compared to the untreated check (radial growth)
[1] = test system: Septoria lycopersici/Corynespora cassicola (CORYCA); experiment: Septoria lycopersici/Corynespora cassicola (CORYCA) (leaf spot of tomato) in vitro test, radial growth on potato dextrose agar; format: cell-based; details: 168 h, 300 ppm in potato dextrose agar, 25° C., 70% relative humidity, seven days, read-out: control compared to the untreated check (radial growth)
Fusarium culmorum = Fusarium culmorum (foot rot of cereals) in vitro test, radial growth on potato dextrose agar; format: cell-based; details: 168 h, 300 ppm in potato dextrose agar, 25° C., 60% relative humidity, seven days, read-out: control compared to the untreated check (radial growth)
Experimental: Compounds were dissolved in 0.3% dimethyl sulfoxide and then added to potato dextrose agar medium just prior to dispensing it into petri dishes. 5 mL medium with the compound in the desired concentration was dispensed into 60 mm sterile petri-plates. After solidification each plate was seeded with a 5 mm size mycelial disc taken from the periphery of an actively growing virulent culture plate. Plates were incubated in growth chambers at 25° C. temperature and 60% relative humidity for seven days and then the radial growth was measured and compared to that of the untreated control.

Phakopsora pachyrhizi = Phakopsora pachyrhizi test in soybean, preventive, in vivo on plants; details: in Glycine max, read-out: Efficacy (% control), disease severity compared to the untreated check

CCN(C)C=Nc1cc(F)cc(Nc2cc(F)cc(F)c2)c1C [Compound 77, N′-(3-((3,5-difluorophenyl)amino)-5-fluoro-2-methylphenyl)-N-ethyl-N-methylformimidamide]
≥ 70%: inhibition of growth at 300 ppm (Pyricularia oryzae) | inhibition of growth at 300 ppm (Rhizoctonia solani) | inhibition of growth at 300 ppm (Botrytis cinerea) | inhibition of growth at 300 ppm (Alternaria solani) | inhibition of growth at 300 ppm (Colletotrichum capsici) | inhibition of growth at 300 ppm [1] | inhibition of growth at 300 ppm (Fusarium culmorum) | pest or weed control at 500 ppm (Phakopsora pachyrhizi)

CCN(C)C=Nc1cc(F)cc(Cc2ccc(F)cc2)c1C [Compound 204, N-ethyl-N′-(5-fluoro-3-(4-fluorobenzyl)-2-methylphenyl)-N-methylformimidamide]
≥ 70%: inhibition of growth at 300 ppm (Pyricularia oryzae) | inhibition of growth at 300 ppm (Rhizoctonia solani) | inhibition of growth at 300 ppm (Botrytis cinerea) | inhibition of growth at 300 ppm (Alternaria solani) | inhibition of growth at 300 ppm (Colletotrichum capsici) | inhibition of growth at 300 ppm [1] | inhibition of growth at 300 ppm (Fusarium culmorum) | pest or weed control at 500 ppm (Phakopsora pachyrhizi)

CCN(C)C=Nc1cc(F)cc(Nc2ccc(C(C)(C)C)cc2)c1C [Compound 20, N′-(3-((4-(tert-butyl)phenyl)amino)-5-fluoro-2-methylphenyl)-N-ethyl-N-methylformimidamide]
≥ 70%: inhibition of growth at 300 ppm (Pyricularia oryzae) | inhibition of growth at 300 ppm (Rhizoctonia solani) | inhibition of growth at 300 ppm (Botrytis cinerea) | inhibition of growth at 300 ppm (Alternaria solani) | inhibition of growth at 300 ppm (Colletotrichum capsici) | inhibition of growth at 300 ppm [1] | inhibition of growth at 300 ppm (Fusarium culmorum) | pest or weed control at 500 ppm (Phakopsora pachyrhizi)

CCN(C)C=Nc1cc(C)cc(Cc2ccccc2)c1C [Compound 207, N′-(3-benzyl-2,5-dimethylphenyl)-N-ethyl-N-methylformimidamide]
≥ 70%: inhibition of growth at 300 ppm (Pyricularia oryzae) | inhibition of growth at 300 ppm (Rhizoctonia solani) | inhibition of growth at 300 ppm (Botrytis cinerea) | inhibition of growth at 300 ppm (Alternaria solani) | inhibition of growth at 300 ppm (Colletotrichum capsici) | inhibition of growth at 300 ppm [1] | inhibition of growth at 300 ppm (Fusarium culmorum) | pest or weed control at 500 ppm (Phakopsora pachyrhizi)

CCN(C)C=Nc1cc(Cl)cc(Cc2ccc(Cl)cc2)c1C [Compound 126, N′-(5-chloro-3-(4-chlorobenzyl)-2-methylphenyl)-N-ethyl-N-methylformimidamide]
≥ 70%: inhibition of growth at 300 ppm (Pyricularia oryzae) | inhibition of growth at 300 ppm (Rhizoctonia solani) | inhibition of growth at 300 ppm (Botrytis cinerea) | inhibition of growth at 300 ppm (Alternaria solani) | inhibition of growth at 300 ppm (Colletotrichum capsici) | inhibition of growth at 300 ppm [1] | inhibition of growth at 300 ppm (Fusarium culmorum) | pest or weed control at 500 ppm (Phakopsora pachyrhizi)

CCN(C)C=Nc1cc(OC)cc(Cc2ccc(C)cc2)c1C [Compound 263, N-ethyl-N′-(5-methoxy-2-methyl-3-(4-methylbenzyl)phenyl)-N-methylformimidamide]
≥ 70%: inhibition of growth at 300 ppm (Pyricularia oryzae) | inhibition of growth at 300 ppm (Rhizoctonia solani) | inhibition of growth at 300 ppm (Botrytis cinerea) | inhibition of growth at 300 ppm (Alternaria solani) | inhibition of growth at 300 ppm (Colletotrichum capsici) | inhibition of growth at 300 ppm [1] | inhibition of growth at 300 ppm (Fusarium culmorum) | pest or weed control at 500 ppm (Phakopsora pachyrhizi)

CCN(C)C=Nc1cc(C)cc(Cc2cccc(C)c2)c1Cl [Compound 17, N′-(2-chloro-5-methyl-3-(3-methylbenzyl)phenyl)-N-ethyl-N-methylformimidamide]
≥ 70%: inhibition of growth at 300 ppm (Pyricularia oryzae) | inhibition of growth at 300 ppm (Rhizoctonia solani) | inhibition of growth at 300 ppm (Botrytis cinerea) | inhibition of growth at 300 ppm (Alternaria solani) | inhibition of growth at 300 ppm (Colletotrichum capsici) | inhibition of growth at 300 ppm [1] | inhibition of growth at 300 ppm (Fusarium culmorum) | pest or weed control at 500 ppm (Phakopsora pachyrhizi)

CCN(C)C=Nc1cc(C)cc(Cc2ccccc2Cl)c1C [Compound 220, N′-(3-(2-chlorobenzyl)-2,5-dimethylphenyl)-N-ethyl-N-methylformimidamide]
≥ 70%: inhibition of growth at 300 ppm (Pyricularia oryzae) | inhibition of growth at 300 ppm (Rhizoctonia solani) | inhibition of growth at 300 ppm (Botrytis cinerea) | inhibition of growth at 300 ppm (Alternaria solani) | inhibition of growth at 300 ppm (Colletotrichum capsici) | inhibition of growth at 300 ppm [1] | inhibition of growth at 300 ppm (Fusarium culmorum) | pest or weed control at 500 ppm (Phakopsora pachyrhizi)

CCN(C)C=Nc1cc(Cl)cc(Cc2ccc(F)cc2)c1C [Compound 124, N′-(5-chloro-3-(4-fluorobenzyl)-2-methylphenyl)-N-ethyl-N-methylformimidamide]
≥ 70%: inhibition of growth at 300 ppm (Pyricularia oryzae) | inhibition of growth at 300 ppm (Rhizoctonia solani) | inhibition of growth at 300 ppm (Botrytis cinerea) | inhibition of growth at 300 ppm (Alternaria solani) | inhibition of growth at 300 ppm (Colletotrichum capsici) | inhibition of growth at 300 ppm [1] | inhibition of growth at 300 ppm (Fusarium culmorum) | pest or weed control at 500 ppm (Phakopsora pachyrhizi)

CCN(C)C=Nc1cc(C)cc(Cc2cccc(C)c2)c1C [Compound 208, N′-(2,5-dimethyl-3-(3-methylbenzyl)phenyl)-N-ethyl-N-methylformimidamide]
≥ 70%: inhibition of growth at 300 ppm (Pyricularia oryzae) | inhibition of growth at 300 ppm (Rhizoctonia solani) | inhibition of growth at 300 ppm (Botrytis cinerea) | inhibition of growth at 300 ppm (Alternaria solani) | inhibition of growth at 300 ppm (Colletotrichum capsici) | inhibition of growth at 300 ppm [1] | inhibition of growth at 300 ppm (Fusarium culmorum) | pest or weed control at 500 ppm (Phakopsora pachyrhizi)

CCN(C)C=Nc1cc(OC)cc(Cc2ccc(Br)cc2)c1C [Compound 287, N′-(3-(4-bromobenzyl)-5-methoxy-2-methylphenyl)-N-ethyl-N-methylformimidamide]
≥ 70%: inhibition of growth at 300 ppm (Pyricularia oryzae) | inhibition of growth at 300 ppm (Rhizoctonia solani) | inhibition of growth at 300 ppm (Botrytis cinerea) | inhibition of growth at 300 ppm (Alternaria solani) | inhibition of growth at 300 ppm (Colletotrichum capsici) | inhibition of growth at 300 ppm [1] | inhibition of growth at 300 ppm (Fusarium culmorum) | pest or weed control at 500 ppm (Phakopsora pachyrhizi)

CCN(C)C=Nc1cc(C)cc(Cc2ccc(F)cc2)c1C [Compound 222, N-ethyl-N′-(3-(4-fluorobenzyl)-2,5-dimethylphenyl)-N-methylformimidamide]
≥ 70%: inhibition of growth at 300 ppm (Pyricularia oryzae) | inhibition of growth at 300 ppm (Rhizoctonia solani) | inhibition of growth at 300 ppm (Botrytis cinerea) | inhibition of growth at 300 ppm (Alternaria solani) | inhibition of growth at 300 ppm (Colletotrichum capsici) | inhibition of growth at 300 ppm [1] | inhibition of growth at 300 ppm (Fusarium culmorum) | pest or weed control at 500 ppm (Phakopsora pachyrhizi)

CCN(C)C=Nc1cc(C)cc(Cc2ccc(Cl)cc2)c1C [Compound 224, N′-(3-(4-chlorobenzyl)-2,5-dimethylphenyl)-N-ethyl-N-methylformimidamide]
≥ 70%: inhibition of growth at 300 ppm (Pyricularia oryzae) | inhibition of growth at 300 ppm (Rhizoctonia solani) | inhibition of growth at 300 ppm (Botrytis cinerea) | inhibition of growth at 300 ppm (Alternaria solani) | inhibition of growth at 300 ppm (Colletotrichum capsici) | inhibition of growth at 300 ppm [1] | inhibition of growth at 300 ppm (Fusarium culmorum) | pest or weed control at 500 ppm (Phakopsora pachyrhizi)

CCN(C)C=Nc1cc(C)cc(Cc2ccc(F)cc2)c1Cl [Compound 44, N′-(2-chloro-3-(4-fluorobenzyl)-5-methylphenyl)-N-ethyl-N-methylformimidamide]
≥ 70%: inhibition of growth at 300 ppm (Pyricularia oryzae) | inhibition of growth at 300 ppm (Rhizoctonia solani) | inhibition of growth at 300 ppm (Botrytis cinerea) | inhibition of growth at 300 ppm (Alternaria solani) | inhibition of growth at 300 ppm (Colletotrichum capsici) | inhibition of growth at 300 ppm [1] | inhibition of growth at 300 ppm (Fusarium culmorum) | pest or weed control at 500 ppm (Phakopsora pachyrhizi)

CCN(C)C=Nc1cc(C)cc(Cc2cccc(Cl)c2)c1C [Compound 3, N′-(3-(3-chlorobenzyl)-2,5-dimethylphenyl)-N-ethyl-N-methylformimidamide]
≥ 70%: inhibition of growth at 300 ppm (Pyricularia oryzae) | inhibition of growth at 300 ppm (Rhizoctonia solani) | inhibition of growth at 300 ppm (Botrytis cinerea) | inhibition of growth at 300 ppm (Alternaria solani) | inhibition of growth at 300 ppm (Colletotrichum capsici) | inhibition of growth at 300 ppm [1] | inhibition of growth at 300 ppm (Fusarium culmorum)
